pIC50: −log10 of the molar value. Where two headings read alike, the source gives them in different places.
Legend:
Capan-1 (K-Ras G12V) = assay: CellTiter-Glo cell viability assay, 5-day treatment; assay type: cell-based; conditions: Homo sapiens, CAPAN-1, 120 h, 5-day treatment; read-out: Capan-1 Cell Viability assay data (K-Ras G12V, IC50)
How it was run: (§1)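 Seeded cells received test compound by direct dispensing. On day 5 the plates sat at room temperature approximately 30 minutes, then luminescence was measured. Data were normalized to DMSO and curve-fitted with four parameters.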

NCI-H358 (K-Ras G12C) = assay: as above; assay type: cell-based; conditions: Homo sapiens, NCI-H358, 120 h, 5-day treatment; read-out: H358 Cell Viability assay data (K-Ras G12C, IC50)
How it was run: as §1

NRAS Q61K = NRAS Q61K (Homo sapiens, UniProt P01111+P62937, Q61K); assay: Disruption of BRAF RBD interaction with Ras (FRET / MOA assay, with Cyclophilin A); assay type: biochemical
How it was run: (§2)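 IC50 reflects compound-driven Ras:Cyclophilin A ternary complex displacing BRAF RBD, read as lowered TR-FRET ratio relative to DMSO after Eu anti-His (10 nM) and APC anti-GST (50 nM) detection for 1.5 h. Prior incubation 3 h, 25° C, with 12.5 nM GMPPNP-loaded Ras, 50 nM BRAF RBD, 25 μM Cyclophilin A; top compound 30 μM.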

NRAS WT = NRAS WT (Homo sapiens, UniProt P01111+P62937); assay: as above; assay type: biochemical
How it was run: as §2

NRAS Q61R = NRAS Q61R (Homo sapiens, UniProt P01111+P62937, Q61R); assay: as above; assay type: biochemical
How it was run: as §2

KRAS Q61H = KRAS Q61H (Homo sapiens, UniProt P01116+P62937, Q61H); assay: as above; assay type: biochemical
How it was run: as §2

KRAS G13D = KRAS G13D (Homo sapiens, UniProt P01116+P62937, G13D); assay: as above; assay type: biochemical
How it was run: (§3)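 TR-FRET: nucleotide-loaded K-Ras mutant or WT with Cyclophilin A and BRAF RBD, compound 10-point 3-fold from 30 μM final, 3 h at 25° C, then anti-His Eu (10 nM) and anti-GST APC (50 nM) for 1.5 h. Decreased FRET ratio versus DMSO gives IC50.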

KRAS G12V = KRAS G12V (Homo sapiens, UniProt P01116+P62937, G12V); assay: as above; assay type: biochemical
How it was run: as §3

NRAS G12C = NRAS G12C (Homo sapiens, UniProt P01111+P62937, G12C); assay: as above; assay type: biochemical
KRAS G12D = KRAS G12D (Homo sapiens, UniProt P01116+P62937, G12D); assay: as above; assay type: biochemical
How it was run: as §3

KRAS G12C = KRAS G12C (Homo sapiens, UniProt P01116+P62937, G12C); assay: as above; assay type: biochemical
How it was run: as §3

KRAS WT = KRAS WT (Homo sapiens, UniProt P01116+P62937); assay: as above; assay type: biochemical
How it was run: as §3

KRAS G13C = KRAS G13C (Homo sapiens, UniProt P01116+P62937, G13C); assay: as above; assay type: biochemical
How it was run: as §3

KRAS G12S = KRAS G12S (Homo sapiens, UniProt P01116+P62937, G12S); assay: as above; assay type: biochemical
How it was run: as §3

[1] = NRAS Q61K, read-out: NRAS Q61K FRET data IC50
[2] = NRAS WT, read-out: NRAS WT FRET data IC50
[3] = NRAS Q61R, read-out: NRAS Q61R FRET data IC50
[4] = KRAS Q61H, read-out: KRAS Q61H FRET data IC50
[5] = KRAS G13D, read-out: KRAS G13D FRET data IC50
[6] = KRAS G12V, read-out: KRAS G12V FRET data IC50
[7] = NRAS G12C, read-out: NRAS G12C FRET data IC50
[8] = read-out: KRAS G12D FRET data, IC50
[9] = read-out: KRAS G12C FRET data, IC50
[10] = KRAS WT, read-out: KRAS WT FRET data IC50
[11] = read-out: KRAS G13C FRET data, IC50
[12] = read-out: KRAS G12S FRET data, IC50

Chain of KRAS WT (P01116 1-169 isoform P01116-2 limits assumed): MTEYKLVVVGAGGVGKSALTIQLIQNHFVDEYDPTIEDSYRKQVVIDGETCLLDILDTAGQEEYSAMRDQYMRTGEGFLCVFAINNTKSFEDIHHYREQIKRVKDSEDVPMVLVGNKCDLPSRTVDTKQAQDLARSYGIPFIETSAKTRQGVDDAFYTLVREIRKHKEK
Chain of KRAS WT (P62937 whole entry): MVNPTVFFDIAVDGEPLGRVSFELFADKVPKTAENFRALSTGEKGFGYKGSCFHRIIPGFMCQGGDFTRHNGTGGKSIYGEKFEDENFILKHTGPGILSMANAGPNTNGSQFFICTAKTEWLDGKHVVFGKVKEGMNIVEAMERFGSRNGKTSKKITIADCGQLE
Chain of NRAS G12C (P01111 whole entry G12C): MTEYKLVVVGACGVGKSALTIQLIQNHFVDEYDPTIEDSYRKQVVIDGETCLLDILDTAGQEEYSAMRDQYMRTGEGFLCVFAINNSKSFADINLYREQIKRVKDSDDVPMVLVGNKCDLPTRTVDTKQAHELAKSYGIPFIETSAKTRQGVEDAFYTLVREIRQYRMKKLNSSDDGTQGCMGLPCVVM
Chain of NRAS G12C (P62937 whole entry): as the sequence (P62937 whole entry) above
Chain of KRAS G12S (P01116 1-169 isoform P01116-2 G12S limits assumed): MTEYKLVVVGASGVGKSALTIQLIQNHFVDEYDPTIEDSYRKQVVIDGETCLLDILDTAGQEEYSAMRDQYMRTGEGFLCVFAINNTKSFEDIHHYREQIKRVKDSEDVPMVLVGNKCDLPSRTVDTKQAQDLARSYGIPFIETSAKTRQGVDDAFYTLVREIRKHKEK
Chain of KRAS G12S (P62937 whole entry): as the sequence (P62937 whole entry) above
Chain of KRAS Q61H (P01116 1-169 isoform P01116-2 Q61H limits assumed): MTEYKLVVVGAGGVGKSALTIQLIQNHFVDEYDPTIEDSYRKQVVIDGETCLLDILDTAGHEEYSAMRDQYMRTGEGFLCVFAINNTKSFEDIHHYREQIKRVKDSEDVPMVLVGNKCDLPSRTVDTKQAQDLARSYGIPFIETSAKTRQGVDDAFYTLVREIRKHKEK
Chain of KRAS Q61H (P62937 whole entry): as the sequence (P62937 whole entry) above
Chain of NRAS Q61R (P01111 whole entry Q61R): as the sequence (P01111 whole entry G12C) above, with C12G, Q61R counted along it
Chain of NRAS Q61R (P62937 whole entry): as the sequence (P62937 whole entry) above
Chain of KRAS G12V (P01116 1-169 isoform P01116-2 G12V limits assumed): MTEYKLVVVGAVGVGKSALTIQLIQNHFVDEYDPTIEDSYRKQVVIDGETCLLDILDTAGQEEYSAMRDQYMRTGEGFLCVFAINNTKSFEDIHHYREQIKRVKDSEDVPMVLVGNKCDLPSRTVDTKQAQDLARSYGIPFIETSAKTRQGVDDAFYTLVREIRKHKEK
Chain of KRAS G12V (P62937 whole entry): as the sequence (P62937 whole entry) above
Chain of KRAS G12D (P01116 1-169 isoform P01116-2 G12D limits assumed): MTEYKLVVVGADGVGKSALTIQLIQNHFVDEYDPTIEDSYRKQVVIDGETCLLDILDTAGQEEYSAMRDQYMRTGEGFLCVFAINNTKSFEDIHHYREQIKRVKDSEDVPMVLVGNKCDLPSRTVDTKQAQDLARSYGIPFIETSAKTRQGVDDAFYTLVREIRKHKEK
Chain of KRAS G12D (P62937 whole entry): as the sequence (P62937 whole entry) above
Chain of KRAS G13D (P01116 1-169 isoform P01116-2 G13D limits assumed): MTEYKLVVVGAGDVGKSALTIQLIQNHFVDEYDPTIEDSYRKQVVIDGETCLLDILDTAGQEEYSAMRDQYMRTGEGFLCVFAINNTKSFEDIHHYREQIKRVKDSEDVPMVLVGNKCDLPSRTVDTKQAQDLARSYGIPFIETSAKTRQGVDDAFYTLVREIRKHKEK
Chain of KRAS G13D (P62937 whole entry): as the sequence (P62937 whole entry) above
Chain of NRAS WT (P01111 whole entry): as the sequence (P01111 whole entry G12C) above, with C12G counted along it
Chain of NRAS WT (P62937 whole entry): as the sequence (P62937 whole entry) above
Chain of NRAS Q61K (P01111 whole entry Q61K): as the sequence (P01111 whole entry G12C) above, with C12G, Q61K counted along it
Chain of NRAS Q61K (P62937 whole entry): as the sequence (P62937 whole entry) above
Chain of KRAS G13C (P01116 1-169 isoform P01116-2 G13C): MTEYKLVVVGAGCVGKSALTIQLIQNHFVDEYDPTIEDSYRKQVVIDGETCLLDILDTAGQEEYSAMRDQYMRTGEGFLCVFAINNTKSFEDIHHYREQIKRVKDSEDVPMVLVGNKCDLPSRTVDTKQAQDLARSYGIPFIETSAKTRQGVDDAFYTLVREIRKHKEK
Chain of KRAS G13C (P62937 whole entry): as the sequence (P62937 whole entry) above
Chain of KRAS G12C (P01116 1-169 isoform P01116-2 G12C): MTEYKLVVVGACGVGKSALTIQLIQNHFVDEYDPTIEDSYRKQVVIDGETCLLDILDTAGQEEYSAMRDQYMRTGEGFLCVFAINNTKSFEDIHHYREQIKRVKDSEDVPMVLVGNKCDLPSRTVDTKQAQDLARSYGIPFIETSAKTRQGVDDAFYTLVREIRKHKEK
Chain of KRAS G12C (P62937 whole entry): as the sequence (P62937 whole entry) above

Compound | pIC50 (NCI-H358 (K-Ras G12C)) | pIC50 (NRAS Q61K; [1]) | pIC50 (NRAS WT; [2]) | pIC50 (NRAS Q61R; [3]) | pIC50 (KRAS Q61H; [4]) | pIC50 (KRAS G13D; [5]) | pIC50 (KRAS G12V; [6]) | pIC50 (NRAS G12C; [7]) | pIC50 (KRAS G12D; [8]) | pIC50 (KRAS G12C; [9]) | pIC50 (KRAS WT; [10]) | pIC50 (KRAS G13C; [11]) | pIC50 (KRAS G12S; [12]) | pIC50 (Capan-1 (K-Ras G12V)) | further results
CCn1c(-c2cccnc2[C@H](C)OC)c2c3cc(ccc31)-c1csc(n1)C[C@H](NC(=O)[C@H](C(C)C)N(C)C(=O)N1CC(CN(C)C)(OC)C1)C(=O)N1CCC[C@H](N1)C(=O)OCC(C)(C)C2 (atropisomer, axis not shown) [Example A575] | 6.00 to 7.00 | 5.00 to 6.00 | 5.00 to 6.00 | 5.00 to 6.00 | 5.00 to 6.00 | 5.00 to 6.00 | 5.00 to 6.00 | 5.00 to 6.00 | 5.00 to 6.00 | 5.00 to 6.00 | 5.00 to 6.00 | 5.00 to 6.00 | 5.00 to 6.00 | 6.00 to 7.00 | 
CCn1c(-c2cccnc2[C@H](C)OC)c2c3cc(ccc31)-c1csc(n1)C[C@H](NC(=O)[C@H](C(C)C)N(C)C(=O)N1CCC[C@@H](N(C)C)CC1)C(=O)N1CCC[C@H](N1)C(=O)OCC(C)(C)C2 [Example A494] | 7.00 to 8.00 |  |  |  |  |  |  |  |  |  |  |  |  | 7.00 to 8.00 | pIC50 (NRAS Q61K; NRAS Q61K FRET data IC50, NRAS Q61K): 7.00 to 8.00; pIC50 (NRAS WT; NRAS WT FRET data IC50, NRAS WT): 7.00 to 8.00; pIC50 (NRAS Q61R; NRAS Q61R FRET data IC50, NRAS Q61R): 7.00 to 8.00; pIC50 (KRAS Q61H; KRAS Q61H FRET data IC50, KRAS Q61H): 7.00 to 8.00; pIC50 (KRAS G13D; KRAS G13D FRET data IC50, KRAS G13D): 6.00 to 7.00; pIC50 (KRAS G12V; KRAS G12V FRET data IC50, KRAS G12V): 6.00 to 7.00; pIC50 (NRAS G12C; NRAS G12C FRET data IC50, NRAS G12C): 7.00 to 8.00; pIC50 (KRAS G12D; KRAS G12D FRET data, IC50): 7.00 to 8.00; pIC50 (KRAS G12C; KRAS G12C FRET data, IC50): 7.00 to 8.00; pIC50 (KRAS WT; KRAS WT FRET data IC50, KRAS WT): 7.00 to 8.00; pIC50 (KRAS G13C; KRAS G13C FRET data, IC50): 6.00 to 7.00; pIC50 (KRAS G12S; KRAS G12S FRET data, IC50): 7.00 to 8.00
CCn1c(-c2cccnc2[C@H](C)OC)c2c3cc(ccc31)-c1cc(O)cc(c1)C[C@H](NC(=O)[C@H](C(C)C)N(C)C(=O)C1Cc3cccnc3C1)C(=O)N1CCC[C@H](N1)C(=O)OCC(C)(C)C2 (some centres unmarked) [Example A250] | 7.00 to 8.00 | 6.00 to 7.00 | 7.00 to 8.00 | 6.00 to 7.00 | 7.00 to 8.00 | 6.00 to 7.00 | 7.00 to 8.00 | 7.00 to 8.00 | 6.00 to 7.00 | 7.00 to 8.00 | 6.00 to 7.00 | 7.00 to 8.00 | 7.00 to 8.00 | 7.00 to 8.00 | 
CCn1c(-c2cccnc2[C@H](C)OC)c2c3cc(ccc31)-c1csc(n1)C[C@H](NC(=O)[C@H](C(C)C)N(C)C(=O)N1CCN(C(=O)CN(C)C)CC1)C(=O)N1CCC[C@H](N1)C(=O)OCC(C)(C)C2 (atropisomer, axis not shown) [Example A290] | 7.00 to 8.00 | 7.00 to 8.00 | 7.00 to 8.00 | 6.00 to 7.00 | 7.00 to 8.00 | 6.00 to 7.00 | 6.00 to 7.00 | 7.00 to 8.00 | 6.00 to 7.00 | 7.00 to 8.00 | 7.00 to 8.00 | 6.00 to 7.00 | 6.00 to 7.00 | 7.00 to 8.00 | 
CCn1c(-c2cccnc2[C@H](C)OC)c2c3cc(ccc31)-c1csc(n1)C[C@H](NC(=O)[C@H](C(C)C)N(C)C(=O)N1CCC3(CCN(C)CC3)C1)C(=O)N1CCC[C@H](N1)C(=O)OCC(C)(C)C2 (atropisomer, axis not shown) [Example A565] | 7.00 to 8.00 | 7.00 to 8.00 | 7.00 to 8.00 | 7.00 to 8.00 | 7.00 to 8.00 | 6.00 to 7.00 | 6.00 to 7.00 | 7.00 to 8.00 | 6.00 to 7.00 | 7.00 to 8.00 | 7.00 to 8.00 | 6.00 to 7.00 | 7.00 to 8.00 | 7.00 to 8.00 | 

Second part, led by results:

pIC50 (NCI-H358 (K-Ras G12C)) | pIC50 (NRAS Q61K; [1]) | pIC50 (NRAS WT; [2]) | pIC50 (NRAS Q61R; [3]) | pIC50 (KRAS Q61H; [4]) | pIC50 (KRAS G13D; [5]) | pIC50 (KRAS G12V; [6]) | pIC50 (NRAS G12C; [7]) | pIC50 (KRAS G12D; [8]) | pIC50 (KRAS G12C; [9]) | pIC50 (KRAS WT; [10]) | pIC50 (KRAS G13C; [11]) | pIC50 (KRAS G12S; [12]) | Compound | pIC50 (Capan-1 (K-Ras G12V)) | further results
7.00 to 8.00 | 7.00 to 8.00 | 7.00 to 8.00 | 6.00 to 7.00 | 7.00 to 8.00 | 6.00 to 7.00 | 6.00 to 7.00 | 7.00 to 8.00 | 6.00 to 7.00 | 7.00 to 8.00 | 7.00 to 8.00 | 6.00 to 7.00 | 6.00 to 7.00 | CCn1c(-c2cccnc2[C@H](C)OC)c2c3cc(ccc31)-c1csc(n1)C[C@H](NC(=O)[C@H](C(C)C)N(C)C(=O)N1CCC[C@@H](CN(C)C)C1)C(=O)N1CCC[C@H](N1)C(=O)OCC(C)(C)C2 [Example A574] | 7.00 to 8.00 | 
7.00 to 8.00 | 6.00 to 7.00 | 6.00 to 7.00 | 6.00 to 7.00 | 6.00 to 7.00 | 5.00 to 6.00 | 6.00 to 7.00 | 6.00 to 7.00 | 5.00 to 6.00 | 6.00 to 7.00 | 6.00 to 7.00 | 6.00 to 7.00 | 6.00 to 7.00 | CCn1c(-c2cccnc2[C@H](C)OC)c2c3cc(ccc31)-c1csc(n1)C[C@H](NC(=O)[C@H](C(C)C)N(C)C(=O)N1CC(n3nc(C)cc3C)C1)C(=O)N1CCC[C@H](N1)C(=O)OCC(C)(C)C2 [Example A297] | 6.00 to 7.00 | 
7.00 to 8.00 | 6.00 to 7.00 | 6.00 to 7.00 | 6.00 to 7.00 | 6.00 to 7.00 | 5.00 to 6.00 | 6.00 to 7.00 | 6.00 to 7.00 | 5.00 to 6.00 | 6.00 to 7.00 | 6.00 to 7.00 | 6.00 to 7.00 | 6.00 to 7.00 | CCn1c(-c2cccnc2[C@H](C)OC)c2c3cc(ccc31)-c1csc(n1)C[C@H](NC(=O)[C@H](C(C)C)N(C)C(=O)N1CCN3CCOC[C@@H]3C1)C(=O)N1CCC[C@H](N1)C(=O)OCC(C)(C)C2 [Example A547] | 7.00 to 8.00 | 
7.00 to 8.00 | 6.00 to 7.00 | 5.00 to 6.00 | 6.00 to 7.00 | 6.00 to 7.00 | 5.00 to 6.00 | 5.00 to 6.00 | 6.00 to 7.00 | 5.00 to 6.00 | 6.00 to 7.00 | 5.00 to 6.00 | 5.00 to 6.00 | 5.00 to 6.00 | CCn1c(-c2cccnc2[C@H](C)OC)c2c3cc(ccc31)-c1csc(n1)C[C@H](NC(=O)[C@H](C(C)C)N(C)C(=O)N1CC3(CN(C)CCO3)C1)C(=O)N1CCC[C@H](N1)C(=O)OCC(C)(C)C2 [Example A499] | 7.00 to 8.00 | 
> 8.00 | 6.00 to 7.00 | 6.00 to 7.00 | 6.00 to 7.00 | 6.00 to 7.00 | 6.00 to 7.00 | 6.00 to 7.00 | 7.00 to 8.00 | 6.00 to 7.00 | 6.00 to 7.00 | 6.00 to 7.00 | 6.00 to 7.00 | 6.00 to 7.00 | CCn1c(-c2cc(N3CCN(C)CC3)cnc2[C@H](C)OC)c2c3cc(ccc31)-c1csc(n1)C[C@H](NC(=O)[C@H](C(C)C)N(C)C(=O)N1C[C@@H](C)N(C)C[C@H]1C)C(=O)N1CCC[C@H](N1)C(=O)OCC(C)(C)C2 (atropisomer, axis not shown) [Example A476] | > 8.00 | 
